Converted amounts (≈) assume the structure as drawn.
Columns and labels:
[1] = nephelometric (kinetic) solubility determination, phosphate buffer pH 7.4; format: physicochemical; settings: aqueous buffer, kinetic from dmso stock, nephelometric, Table 7
Protocol: A DMSO solution of the test compound (2.5 mM; 0.5 μl) is pipetted into 200 μl of an aqueous test solution (e.g. phosphate-buffered saline, 10×, 1M, Sigma, adjusted to 10 mM, pH 7.4) in a 96-well microtiter plate, and the turbidity is measured at the resulting theoretical concentration for the test compound of 6.25 μM using a nephelometer (e.g. Nephelostar Galaxy, BMG Labtech). The concentration of the test compound in the aqueous test solution is then raised to a theoretical 12.5 μM by adding further DMSO solution (2.5 mM; 0.5 μl), and the turbidity measurement is repeated. Further additions of DMSO solutions (1 μl, 2.5 mM; 0.5 μl, 10 mM; then 9×1 μl, 10 mM resulting in theoretical concentrations of 25 μM, 50 μM, 100 μM, 150 μM, 200 μM, 250 μM, 300 μM, 350 μM, 400 μM, 450 μM and 500 μM) with turbidity measurement in between complete the measurement process.
Evaluation: The turbidity values from the nephelometer are plotted against the theoretical concentration of the test compound in the aqueous test solution. As soon as a significant turbidity is detected (e.g. 5 times above the control value of the aqueous test solution) at a theoretical concentration, the level of concentration below this is stated to be the solubility limit of the test compound in the test solution. Thus, the maximum possible measurement range emerges as values<6.25 μM, 6.25-500 μM and >500 μM.

[2] = target: T1, human MCH receptor (Homo sapiens, UniProt Q99705); test: calcium mobilization assay (FLIPR), functional IC50 of MCH1R antagonists; format: cell-based; settings: recombinant HEK293 cell line expressing the human MCH receptor; calcium flux after addition of agonist (MCH); read-out: IC50
T1 construct: expressed in transfected cells
Text: A difference from the reference was, however, the use of the plasmid pEAK8 from EDGE Biosystems (USA) for the construction of the expression vector. The host used for the transfection was a transformed HEK cell line named “PEAK Stable Cells” (likewise from EDGE Biosystems). Functional measurements of the cellular calcium flux after addition of agonist (MCH) in the presence of ligand of the invention took place with the aid of the FLIPR apparatus from Molecular Devices (USA), using protocols of the apparatus manufacturer.

T1 sequence (Q99705 whole entry): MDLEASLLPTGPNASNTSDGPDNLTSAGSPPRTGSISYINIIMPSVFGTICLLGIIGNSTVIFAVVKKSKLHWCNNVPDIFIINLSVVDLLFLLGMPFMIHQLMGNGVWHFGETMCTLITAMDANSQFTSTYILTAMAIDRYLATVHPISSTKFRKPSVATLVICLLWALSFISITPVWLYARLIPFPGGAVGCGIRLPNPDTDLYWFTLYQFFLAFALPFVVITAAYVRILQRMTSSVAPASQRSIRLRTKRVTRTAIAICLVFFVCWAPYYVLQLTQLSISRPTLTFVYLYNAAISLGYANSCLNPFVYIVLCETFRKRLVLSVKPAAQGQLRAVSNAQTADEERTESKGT

## CCCCOc1ccc(C(=O)N[C@H]2CCc3cc(CN4CC5CCC4C5)ccc3C2)cc1 (stereo partly drawn) [Example 7-01]
[1]
  solubility kinetic: 82 µg/mL (≈ 190 µM)
[2]
  IC50: 245 nM

## CN(C(=O)c1ccc(OCC2CC2)cc1)[C@H]1CCc2cc(CN3C[C@@H]4CC[C@H]3C4)ccc2C1 [Example 7-02]
[1]
  solubility kinetic: > 279 µg/mL
[2]
  IC50: 831 nM

## CN(C(=O)c1ccc(OCC2CC2)cc1)[C@H]1CCc2cc(CN3CC4CCC3CC4)ccc2C1 [Example 7-03]
[1]
  solubility kinetic: > 286 µg/mL
[2]
  IC50: 1370 nM

## CN(C(=O)c1ccc(OCC2CC2)cc1)[C@H]1CCc2cc(CN3CCC(C(C)(C)O)CC3)ccc2C1 [Example 7-04]
[1]
  solubility kinetic: > 302 µg/mL
[2]
  IC50: 141 nM

## COC1CCN(Cc2ccc3c(c2)CC[C@H](N(C)C(=O)c2ccc(OCC4CC4)cc2)C3)CC1 [Example 7-05]
[1]
  solubility kinetic: > 288 µg/mL
[2]
  IC50: 625 nM

## CN(C(=O)c1ccc(OCC2CC2)cc1)[C@H]1CCc2cc(CN3CCC(O)CC3)ccc2C1 [Example 7-06]
[1]
  solubility kinetic: > 281 µg/mL
[2]
  IC50: 508 nM

## CN(C(=O)c1ccc(OCC2CC2)cc1)[C@H]1CCc2cc(CNC3CCCCC3)ccc2C1 [Example 7-07]
[1]
  solubility kinetic: > 280 µg/mL
[2]
  IC50: 336 nM

## CN(C(=O)c1ccc(OCC2CC2)cc1)[C@H]1CCc2cc(CNCC3CC3)ccc2C1 [Example 7-08]
[1]
  solubility kinetic: > 266 µg/mL
[2]
  IC50: 420 nM

## CN(C(=O)c1ccc(OCC2CC2)cc1)[C@H]1CCc2cc(CN3CCC3)ccc2C1 [Example 7-09]
[1]
  solubility kinetic: > 259 µg/mL
[2]
  IC50: 261 nM

## CN(C(=O)c1ccc(OCC2CC2)cc1)[C@H]1CCc2cc(CNC3CCC3)ccc2C1 [Example 7-10]
[1]
  solubility kinetic: > 266 µg/mL
[2]
  IC50: 1100 nM

## CN(C(=O)c1ccc(OCC2CC2)cc1)[C@H]1CCc2cc(CNCC(C)(C)C)ccc2C1 [Example 7-11]
[1]
  solubility kinetic: > 274 µg/mL
[2]
  IC50: 898 nM

## O=C(N[C@H]1CCc2cc(CN3CCCCCC3)ccc2C1)c1ccc(OCC2CC2)cc1 [Example 7-12]
[1]
  solubility kinetic: 3 µg/mL (≈ 6.93 µM)
[2]
  IC50: 94 nM

## CC(C)(C)CNCc1ccc2c(c1)CC[C@H](NC(=O)c1ccc(OCC3CC3)cc1)C2 [Example 7-13]
[1]
  solubility kinetic: 7 µg/mL (≈ 16.6 µM)
[2]
  IC50: 93 nM

## O=C(N[C@H]1CCc2cc(CN3C[C@@H]4CC[C@H]3C4)ccc2C1)c1ccc(OCC2CC2)cc1 [Example 7-14]
[1]
  solubility kinetic: > 272 µg/mL
[2]
  IC50: 92 nM

## CN(C(=O)c1ccc(OCC2CC2)cc1)[C@H]1CCc2cc(CN3CCCCCC3)ccc2C1 [Example 7-15]
[1]
  solubility kinetic: > 280 µg/mL
[2]
  IC50: 336 nM

## CC(C)CCNCc1ccc2c(c1)CC[C@H](N(C)C(=O)c1ccc(OCC3CC3)cc1)C2 [Example 7-16]
[1]
  solubility kinetic: 137 µg/mL (≈ 315 µM)
[2]
  IC50: 259 nM

## CCN(CC)Cc1ccc2c(c1)CC[C@H](N(C)C(=O)c1ccc(OCC3CC3)cc1)C2 [Example 7-18]
[1]
  solubility kinetic: > 267 µg/mL
[2]
  IC50: 668 nM

## CCC(COC)NCc1ccc2c(c1)CC[C@H](N(C)C(=O)c1ccc(OCC3CC3)cc1)C2 (stereo partly drawn) [Example 7-19]
[1]
  solubility kinetic: > 282 µg/mL
[2]
  IC50: 563 nM

## CCOCCCNCc1ccc2c(c1)CC[C@H](N(C)C(=O)c1ccc(OCC3CC3)cc1)C2 [Example 7-20]
[1]
  solubility kinetic: > 282 µg/mL
[2]
  IC50: 133 nM

## COCCCNCc1ccc2c(c1)CC[C@H](N(C)C(=O)c1ccc(OCC3CC3)cc1)C2 [Example 7-21]
[1]
  solubility kinetic: > 275 µg/mL
[2]
  IC50: 133 nM

## COCC1(CNCc2ccc3c(c2)CC[C@H](N(C)C(=O)c2ccc(OCC4CC4)cc2)C3)CC1 [Example 7-22]
[1]
  solubility kinetic: > 288 µg/mL
[2]
  IC50: 148 nM

## CCOCCNCc1ccc2c(c1)CC[C@H](N(C)C(=O)c1ccc(OCC3CC3)cc1)C2 [Example 7-23]
[1]
  solubility kinetic: > 275 µg/mL
[2]
  IC50: 108 nM

## COC[C@H](C)NCc1ccc2c(c1)CC[C@H](N(C)C(=O)c1ccc(OCC3CC3)cc1)C2 [Example 7-24]
[1]
  solubility kinetic: > 275 µg/mL
[2]
  IC50: 384 nM

## COCC(C)(C)CNCc1ccc2c(c1)CC[C@H](N(C)C(=O)c1ccc(OCC3CC3)cc1)C2 [Example 7-25]
[1]
  solubility kinetic: > 289 µg/mL
[2]
  IC50: 286 nM

## CC(C)OCCNCc1ccc2c(c1)CC[C@H](N(C)C(=O)c1ccc(OCC3CC3)cc1)C2 [Example 7-26]
[1]
  solubility kinetic: > 282 µg/mL
[2]
  IC50: 149 nM

## CN(C(=O)c1ccc(OCC2CC2)cn1)[C@H]1CCc2cc(CN3CCCCCC3)ccc2C1 [Example 7-27]
[1]
  solubility kinetic: 168 µg/mL (≈ 375 µM)
[2]
  IC50: 756 nM

## CN(C(=O)c1ccc(OCC2CC2)cn1)[C@H]1CCc2cc(CN3CCC(C)(C)CC3)ccc2C1 [Example 7-28]
[1]
  solubility kinetic: > 288 µg/mL
[2]
  IC50: 152 nM

## CC1CCN(Cc2ccc3c(c2)CC[C@H](N(C)C(=O)c2ccc(OCC4CC4)cn2)C3)CC1 [Example 7-29]
[1]
  solubility kinetic: > 281 µg/mL
[2]
  IC50: 215 nM

## CN(C(=O)c1ccc(OCC2CC2)cn1)[C@H]1CCc2cc(CNCC3CCCC3)ccc2C1 [Example 7-30]
[1]
  solubility kinetic: > 281 µg/mL
[2]
  IC50: 156 nM

## CCC1(CNCc2ccc3c(c2)CC[C@H](N(C)C(=O)c2ccc(OCC4CC4)cn2)C3)CC1 [Example 7-31]
[1]
  solubility kinetic: > 281 µg/mL
[2]
  IC50: 190 nM

## CC(C)CCNCc1ccc2c(c1)CC[C@H](N(C)C(=O)c1ccc(OCC3CC3)cn1)C2 [Example 7-32]
[1]
  solubility kinetic: > 275 µg/mL
[2]
  IC50: 145 nM

## CN(C(=O)c1ccc(OCC2CC2)cn1)[C@H]1CCc2cc(CN3CC4CCC3CC4)ccc2C1 [Example 7-33]
[1]
  solubility kinetic: > 287 µg/mL
[2]
  IC50: 1100 nM

## CN(C(=O)c1ccc(OCC2CC2)cn1)[C@H]1CCc2cc(CNCC(C)(C)C)ccc2C1 [Example 7-34]
[1]
  solubility kinetic: > 275 µg/mL
[2]
  IC50: 375 nM

Reference: patent US8841290B2, “Substituted tetrahydronaphthalenes, method for the production thereof, and use thereof as drugs” (Sanofi, priority 2009, dated 2014)
